According to publication PMC4955735 (Anesthesiology, 2016):
“Also recorded” adds a separate entry of the source. Read-outs that look alike come from different tables or passages of the source.

What was measured:
liver cells (HepG2) = assay: MTS cell viability assay; format: cell-based, human; settings: calabadion 2 up to 1 mM
S.typhimurium TA 98 = assay: Bacteria reverse mutation assay; settings: for ratio of number of colonies after treatment relative to untreated bacteria: <1.6 not mutagenic
Sprague-Dawley rats [1] = assay: Time to recovery from loss of righting reflex; format: in vivo, rat
[2] = test system: S.typhimurium TA1535, TA 1537, TA 98 and TA 100; assay: Bacteria reverse mutation assay; settings: Ames test, −/+S9
Sprague-Dawley rats [3] = assay: Burst suppression ratio and blood pressure during continuous etomidate infusion; format: in vivo, rat; settings: continuous etomidate i.v.; escalating calabadion 2 infusion; returned from 83%; n=10
Job plot [4] = format: physicochemical; settings: calabadion 2•etomidate; establishes 1:1 complex
[5] = test system: human white blood cells (THP-1); assay: MTS cell viability assay; format: cell-based; settings: calabadion 2 up to 1 mM
hERG channel = hERG channel (Homo sapiens, UniProt Q12809); settings: read-out: IC50, hERG channel; CHO-hERG, patch clamp, up to 25 μM
Sprague-Dawley rats [6] = assay: Maximal tolerated dose escalation study with histopathology in rats; format: in vivo, rat
S.typhimurium TA 1535 = settings: for ratio of number of colonies after treatment relative to untreated bacteria: <1.6 not mutagenic
[7] = test system: THP-1, HepG2 and HEK293 cells; assay: Adenylate kinase release cell necrosis; format: cell-based, human; settings: calabadion 2 up to 1 mM
S.typhimurium TA 1537 = assay: Bacteria reverse mutation assay; settings: for ratio of number of colonies after treatment relative to untreated bacteria: <1.6 not mutagenic
Swiss Webster mice = assay: Dose escalation; format: in vivo, mouse
Sprague-Dawley rats [8] = assay: Total EEG power and blood pressure during continuous ketamine infusion; format: in vivo, rat; settings: highest calabadion 2 dose, baseline 96 mmHg, n=10
kidney cells (HEK293) = assay: MTS cell viability assay; format: cell-based, human; settings: calabadion 2 up to 1 mM
S.typhimurium TA 100 = settings: for ratio of number of colonies after treatment relative to untreated bacteria: <1.6 not mutagenic
Job plot [9] = format: physicochemical; settings: calabadion 2•ketamine, total 1 mM, pD 7.4; establishes 1:1 complex
rats = assay: Balance beam test of functional mobility after anesthesia; format: in vivo, rat; settings: n=7

Chain of hERG channel (Q12809 whole entry): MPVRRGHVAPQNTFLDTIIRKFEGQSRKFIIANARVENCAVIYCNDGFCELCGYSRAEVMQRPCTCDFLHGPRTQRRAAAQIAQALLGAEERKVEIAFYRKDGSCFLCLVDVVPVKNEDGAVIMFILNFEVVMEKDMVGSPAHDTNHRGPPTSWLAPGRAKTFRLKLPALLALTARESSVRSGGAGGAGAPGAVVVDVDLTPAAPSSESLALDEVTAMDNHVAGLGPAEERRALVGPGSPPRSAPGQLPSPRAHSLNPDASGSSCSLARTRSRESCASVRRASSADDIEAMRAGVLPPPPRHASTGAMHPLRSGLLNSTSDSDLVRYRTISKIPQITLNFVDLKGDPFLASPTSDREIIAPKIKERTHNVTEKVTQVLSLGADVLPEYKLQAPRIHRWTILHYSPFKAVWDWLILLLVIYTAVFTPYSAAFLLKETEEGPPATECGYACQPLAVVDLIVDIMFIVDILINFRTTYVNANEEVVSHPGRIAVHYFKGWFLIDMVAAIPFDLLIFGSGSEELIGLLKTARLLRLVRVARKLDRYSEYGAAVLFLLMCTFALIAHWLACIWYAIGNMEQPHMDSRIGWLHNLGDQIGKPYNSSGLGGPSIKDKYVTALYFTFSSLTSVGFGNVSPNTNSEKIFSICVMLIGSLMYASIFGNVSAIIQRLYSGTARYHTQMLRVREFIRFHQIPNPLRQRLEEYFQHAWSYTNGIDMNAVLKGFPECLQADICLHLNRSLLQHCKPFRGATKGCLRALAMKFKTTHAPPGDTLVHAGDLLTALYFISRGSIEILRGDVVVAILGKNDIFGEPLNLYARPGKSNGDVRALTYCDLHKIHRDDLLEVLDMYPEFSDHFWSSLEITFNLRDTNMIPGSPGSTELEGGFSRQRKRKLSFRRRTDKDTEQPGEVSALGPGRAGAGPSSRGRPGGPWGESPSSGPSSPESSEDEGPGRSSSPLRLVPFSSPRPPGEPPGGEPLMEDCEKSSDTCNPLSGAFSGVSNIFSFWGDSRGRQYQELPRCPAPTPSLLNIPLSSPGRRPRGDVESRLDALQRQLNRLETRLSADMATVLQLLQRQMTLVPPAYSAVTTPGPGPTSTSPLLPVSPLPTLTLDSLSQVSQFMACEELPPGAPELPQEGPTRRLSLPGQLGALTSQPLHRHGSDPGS

## C[C@]12N3Cc4c(c(OCCCS(=O)(=O)[O-])c5ccccc5c4OCCCS(=O)(=O)[O-])CN1C(=O)N1CN4C(=O)N5CN6C(=O)N7CN8C(=O)N9Cc%10c(c(OCCCS(=O)(=O)[O-])c%11ccccc%11c%10OCCCS(=O)(=O)[O-])CN%10C(=O)N(CN%11C(=O)N(CN%12C(=O)N(CN(C3=O)[C@]12C)[C@@H]4[C@H]%125)[C@@H]6[C@H]%117)[C@]8(C)[C@@]9%10C.[Na+].[Na+].[Na+].[Na+] [Calabadion 2]
Liver cells (HepG2)
  cell viability: did not observe a significant reduction
S.typhimurium TA 98; TA 98, +S9, 0.012 mg per plate
  number of colonies growing after treatment: 24 ± 4
S.typhimurium TA 98; TA 98, +S9, 0.037 mg per plate
  number of colonies growing after treatment: 27 ± 3
S.typhimurium TA 98; TA 98, +S9, 0.11 mg per plate
  number of colonies growing after treatment: 23 ± 5
S.typhimurium TA 98; TA 98, +S9, 0.33 mg per plate
  number of colonies growing after treatment: 24 ± 7
S.typhimurium TA 98; TA 98, +S9, 1 mg per plate
  number of colonies growing after treatment: 29 ± 6
S.typhimurium TA 98; TA 98, +S9
  ratio of number of colonies after treatment relative to untreated bacteria: 1.07
S.typhimurium TA 98; TA 98, −S9, 0.012 mg per plate
  number of colonies growing after treatment: 24 ± 4
S.typhimurium TA 98; TA 98, −S9, 0.037 mg per plate
  number of colonies growing after treatment: 18 ± 8
S.typhimurium TA 98; TA 98, −S9, 0.11 mg per plate
  number of colonies growing after treatment: 30 ± 10
S.typhimurium TA 98; TA 98, −S9, 0.33 mg per plate
  number of colonies growing after treatment: 21 ± 5
S.typhimurium TA 98; TA 98, −S9, 1 mg per plate
  number of colonies growing after treatment: 20 ± 5
S.typhimurium TA 98; TA 98, −S9
  ratio of number of colonies after treatment relative to untreated bacteria: 1.05
Sprague-Dawley rats [1]; etomidate-anesthetized rats
  decrease of time to recovery from LORR relative to saline: ~50%
Sprague-Dawley rats [1]; ketamine anesthetized rats
  decrease of time to recovery from LORR relative to saline: about 30%
Sprague-Dawley rats [1]; reversal of 4 mg/kg i.v. etomidate bolus
  ED50 (median dose for accelerated recovery from LORR with 50% probability): 984 mg/kg
Sprague-Dawley rats [1]; reversal of 30 mg/kg i.v. bolus of ketamine, 30 mg/kg
  ED50 (median dose for accelerated recovery from LORR with 50% probability): 167 mg/kg
[2]
  mutagenic potential: no mutagenic potential
Sprague-Dawley rats [3]
  mean arterial blood pressure (MAP), % of pre-etomidate baseline: 101%
Job plot [4]
  Job plot maximum (mole fraction): 0.5
[5]
  cell viability: did not observe a significant reduction
hERG channel
  IC50: > 25 µM
Sprague-Dawley rats [6]
  tolerability at effective doses: well tolerated
Sprague-Dawley rats [6]; 5 of 6 animals that received the 2 highest doses, not at 1.6 g/kg
  pathology finding, kidney: • A mild vacuolation of the epithelium in the P1 and P2 segments of the proximal convoluted tubule.
Sprague-Dawley rats [6]; all animals that received 3.1–5.1 g/kg, 1 animal that received 1.6 g/kg
  pathology finding, liver: • Mild to moderate vacuolation that is consistent with mild fat accumulation.
Sprague-Dawley rats [6]; animals receiving 3.1–5.1 g/kg
  pathology finding, lung: Mild cellular necrosis, some apparent fluid in alveolar spaces and enlarged, foamy pulmonary alveolar macrophages; also recorded: Occasional distension of pulmonary alveolar capillaries with red blood cells and in a few animals evidence of possible pulmonary emboli; also recorded: Macrophages, especially in connective tissue or adipose tissue that were distended with a bluish, hematoxylin-positive material that appeared to be localized in the lysosomes
Sprague-Dawley rats [6]; i.v. up to 5.1 g/kg, all doses
  pathology finding, heart: • Within normal limits
  pathology finding, spleen: • Within normal limits
Sprague-Dawley rats [6]; i.v., escalating doses on consecutive days, n=10
  median lethal dose (LD50): 2700 mg/kg
S.typhimurium TA 1535; TA 1535, +S9, 0.012 mg per plate
  number of colonies growing after treatment: 10 ± 2
S.typhimurium TA 1535; TA 1535, +S9, 0.037 mg per plate
  number of colonies growing after treatment: 6 ± 2
S.typhimurium TA 1535; TA 1535, +S9, 0.11 mg per plate
  number of colonies growing after treatment: 7 ± 1
S.typhimurium TA 1535; TA 1535, +S9, 0.33 mg per plate
  number of colonies growing after treatment: 10 ± 5
S.typhimurium TA 1535; TA 1535, +S9, 1 mg per plate
  number of colonies growing after treatment: 7 ± 3
S.typhimurium TA 1535; TA 1535, +S9
  ratio of number of colonies after treatment relative to untreated bacteria: 0.87
S.typhimurium TA 1535; TA 1535, −S9, 0.012 mg per plate
  number of colonies growing after treatment: 6 ± 1
S.typhimurium TA 1535; TA 1535, −S9, 0.037 mg per plate
  number of colonies growing after treatment: 10 ± 5
S.typhimurium TA 1535; TA 1535, −S9, 0.11 mg per plate
  number of colonies growing after treatment: 8 ± 3
S.typhimurium TA 1535; TA 1535, −S9, 0.33 mg per plate
  number of colonies growing after treatment: 7 ± 4
S.typhimurium TA 1535; TA 1535, −S9, 1 mg per plate
  number of colonies growing after treatment: 8 ± 3
S.typhimurium TA 1535; TA 1535, −S9
  ratio of number of colonies after treatment relative to untreated bacteria: 0.72
[7]
  cell lysis: no cell lysis
S.typhimurium TA 1537; TA 1537, +S9, 0.012 mg per plate
  number of colonies growing after treatment: 2 ± 1
S.typhimurium TA 1537; TA 1537, +S9, 0.037 mg per plate
  number of colonies growing after treatment: 4 ± 1
S.typhimurium TA 1537; TA 1537, +S9, 0.11 mg per plate
  number of colonies growing after treatment: 6 ± 1
S.typhimurium TA 1537; TA 1537, +S9, 0.33 mg per plate
  number of colonies growing after treatment: 6 ± 1
S.typhimurium TA 1537; TA 1537, +S9, 1 mg per plate
  number of colonies growing after treatment: 5 ± 2
S.typhimurium TA 1537; TA 1537, +S9
  ratio of number of colonies after treatment relative to untreated bacteria: 0.71
S.typhimurium TA 1537; TA 1537, −S9, 0.012 mg per plate
  number of colonies growing after treatment: 7 ± 2
S.typhimurium TA 1537; TA 1537, −S9, 0.037 mg per plate
  number of colonies growing after treatment: 8 ± 2
S.typhimurium TA 1537; TA 1537, −S9, 0.11 mg per plate
  number of colonies growing after treatment: 7 ± 2
S.typhimurium TA 1537; TA 1537, −S9, 0.33 mg per plate
  number of colonies growing after treatment: 8 ± 1
S.typhimurium TA 1537; TA 1537, −S9, 1 mg per plate
  number of colonies growing after treatment: 3 ± 2
S.typhimurium TA 1537; TA 1537, −S9
  ratio of number of colonies after treatment relative to untreated bacteria: 0.3
Swiss Webster mice; all groups (29, 87, 145, 203 mg/kg i.p. daily for 14 days), after 28 days
  average weight change of mice: ≥ 95%
Swiss Webster mice; mice, i.p. daily for 14 days, up to 203 mg/kg
  tolerance in maximum tolerated dose study: good tolerance
Sprague-Dawley rats [8]
  MAP compared to pre-ketamine baseline: ~130%
Kidney cells (HEK293)
  cell viability: only a slight dip
S.typhimurium TA 100; TA 100, +S9, 0.012 mg per plate
  number of colonies growing after treatment: 114 ± 2
S.typhimurium TA 100; TA 100, +S9, 0.037 mg per plate
  number of colonies growing after treatment: 112 ± 8
S.typhimurium TA 100; TA 100, +S9, 0.11 mg per plate
  number of colonies growing after treatment: 91 ± 6
S.typhimurium TA 100; TA 100, +S9, 0.33 mg per plate
  number of colonies growing after treatment: 101 ± 7
S.typhimurium TA 100; TA 100, +S9, 1 mg per plate
  number of colonies growing after treatment: 97 ± 4
S.typhimurium TA 100; TA 100, +S9
  ratio of number of colonies after treatment relative to untreated bacteria: 0.88
S.typhimurium TA 100; TA 100, −S9, 0.012 mg per plate
  number of colonies growing after treatment: 92 ± 11
S.typhimurium TA 100; TA 100, −S9, 0.037 mg per plate
  number of colonies growing after treatment: 100 ± 6
S.typhimurium TA 100; TA 100, −S9, 0.11 mg per plate
  number of colonies growing after treatment: 94 ± 4
S.typhimurium TA 100; TA 100, −S9, 0.33 mg per plate
  number of colonies growing after treatment: 105 ± 9
S.typhimurium TA 100; TA 100, −S9, 1 mg per plate
  number of colonies growing after treatment: 106 ± 6
S.typhimurium TA 100; TA 100, −S9
  ratio of number of colonies after treatment relative to untreated bacteria: 1.06
Job plot [9]
  Job plot maximum (mole fraction): 0.5
rats; after 4 mg/kg etomidate i.v.
  reduction of time slope of recovery of balance vs saline: 4.9 min
rats; after 30 mg/kg ketamine i.v.
  reduction of time slope of recovery of balance vs saline: 3.9 min
rats; after 50 mg/kg ketamine i.m., calabadion 2 i.p.
  reduction of time slope of recovery of balance vs saline: 15.7 min
